# Results from patent US20250082624A1, “METHODS OF TREATING COGNITIVE IMPAIRMENT” (NeuroTherapia, Inc., priority 2023, published 2025).
# Entries after “also recorded” stand apart in the source; their conditions may differ.
# What was measured:
# [1] = system: plasma biomarkers of inflammation; assay: Plasma biomarkers of inflammation and AD in AD cohort; type: in vivo, human; conditions: for AB40 Median / AB42 Median / Chitinase-3 Median / IL-1β Median / IL-2 Median / IL-4 Median / IL-5 Median / IL-6 Median / IL-8 Median / IL-10 Median / IL-12p70 Median / IL-22 Median / INFg Median / NF-LIGHT Median / Neurogranin Median / TNFa Median / TREM-2 Median / Total Tau Median / hCRP Median / pTau-181 Median: plasma
# Excerpt: Methods: All study procedures were approved by the IRB, and informed consent was obtained. Three cohorts of volunteers 45-80 years of age with well-controlled comorbidities (NOAD) and one cohort of AD patients diagnosed with cognitive impairment consistent with prodromal AD per International Working Group criteria or mild AD per National Institute on Aging—Alzheimer's Association criteria (n=6 active, 2 placebo per cohort) were enrolled. Participants were admitted to the study site for the duration of the dosing and returned 7-12 days after the last dose for a safety visit. Participants received NTRX-07 (10, 30, or 90 mg) or a placebo in a double-blinded randomization orally once daily for seven days. Subjects were assessed for changes in vital signs, including maneuvers to induce lightheadedness, electrocardiograms, 24-hour electroencephalograms (EEG), and safety laboratory studies. The second cohort returned and received a single repeat dose after a standard high-fat meal. The AD cohort also underwent cognitive testing and had blood samples for biomarkers drawn. Subjects had PK sampling done after the first and final dose of the study drug. An independent safety review committee conducted a blinded safety review of adverse events and plasma levels between each cohort.
# Assessments: Subjects were assessed for changes in vital signs, orthostatic blood pressure, Romberg test, nystagmus, timed get up and go, electrocardiograms, electroencephalograms (EEG), and laboratory studies. Subjective questionnaires of drug effects (ARCI-M) were administered. Cohort B returned and received a single repeat dose after a standard high-fat meal. The AD cohort also underwent cognitive testing (MMSE, ADAS-COG, MOCA) and had blood samples for biomarkers drawn.
# An informational letter was filed with the FDA to inform them of this study. The study was designed as follows: • 3 healthy cohorts (cohorts A-C) followed by AD cohort (cohort D) treated at MTD • 6 treated, 2 placebos in each cohort • Doses: 10, 30, 90 mg/treatment—latter doses can be adjusted based on PK assessment • In unit, 7 days of treatment • Monitor vertigo with various tests: (1) timed get-up and go, (2) Nystagmus test, (3) Romberg test, and (4) changes in orthostatic blood pressure (Day 1, 3 and 8) • Use 24 hr EEG monitoring for CNS safety assessment • Assess plasma biomarkers of inflammation and AD pre- and post-treatment in AD cohort • Assess changes on cognition post-treatment using MMSE and ADAS-cog • Fed/fasted study to determine food effects on PK as a subset of the Phase 1b
# Exploratory endpoints include cognitive testing and potential plasma biomarkers of inflammation. The small group size (6 on treatment, 2 placebo) precludes statistical analysis, but the goals were to gain insights for future study design. Exploratory endpoints include: • MMSE, MOCA & ADAS-COG • IL-12p70, IL-10, IL-4, IL-5, INFg, IL-6, IL-8, IL-22, TNFa, IL-10, hCRP, Chitinase-3, TREM-2, IL-2, Neurogranin, Total Tau, AB42, AB40, NF-LIGHT, pTau-181
# [2] = system: dogs; assay: Dog toxicity (CNS safety issue raised by FDA); type: in vivo; conditions: 200 mg/kg/day
# [3] = after 7 days of 90 mg QD, Day 8
smiles,measurement,setting,value
"CC1(Cc2ccccc2)COc2cc(C(=O)N3CCCCC3)ccc21 (stereo not drawn) [NTRX-07, 3-benzyl-3-methyl-2,3-dihydrobenzofuran-6-carboxylic acid-piperidine amide]",Changes in plasma biomarkers,[1]; 90 mg QD 7 days,No significant changes in biomarkers or plasma biomarkers; also recorded: no consistent changes
same,AB40 Median,"[1]; 90 mg QD, Day 1 (baseline)",232.84 pg/mL
same,AB42 Median,"[1]; 90 mg QD, Day 1 (baseline)",8.29 pg/mL
same,Chitinase-3 Median,"[1]; 90 mg QD, Day 1 (baseline)",43668.33 pg/mL
same,IL-1β Median,"[1]; 90 mg QD, Day 1 (baseline)",0.13 pg/mL
same,IL-2 Median,"[1]; 90 mg QD, Day 1 (baseline)",0.16 pg/mL
same,IL-4 Median,"[1]; 90 mg QD, Day 1 (baseline)",1.38 pg/mL
same,IL-5 Median,"[1]; 90 mg QD, Day 1 (baseline)",0.17 pg/mL
same,IL-6 Median,"[1]; 90 mg QD, Day 1 (baseline)",2.19 pg/mL
same,IL-8 Median,"[1]; 90 mg QD, Day 1 (baseline)",7.65 pg/mL
same,IL-10 Median,"[1]; 90 mg QD, Day 1 (baseline)",0.35 pg/mL
same,IL-12p70 Median,"[1]; 90 mg QD, Day 1 (baseline)",0.34 pg/mL
same,IL-22 Median,"[1]; 90 mg QD, Day 1 (baseline)",0.9 pg/mL
same,INFg Median,"[1]; 90 mg QD, Day 1 (baseline)",0.08 pg/mL
same,NF-LIGHT Median,"[1]; 90 mg QD, Day 1 (baseline)",18.24 pg/mL
same,Neurogranin Median,"[1]; 90 mg QD, Day 1 (baseline)",671.19 pg/mL
same,TNFa Median,"[1]; 90 mg QD, Day 1 (baseline)",0.69 pg/mL
same,TREM-2 Median,"[1]; 90 mg QD, Day 1 (baseline)",38468.67 pg/mL
same,Total Tau Median,"[1]; 90 mg QD, Day 1 (baseline)",2.07 pg/mL
same,hCRP Median,"[1]; 90 mg QD, Day 1 (baseline)",4135.17 ng/mL
same,pTau-181 Median,"[1]; 90 mg QD, Day 1 (baseline)",21.53 pg/ml
same,AB40 Median,[1]; [3],226.52 pg/mL
same,AB42 Median,[1]; [3],8.57 pg/mL
same,Chitinase-3 Median,[1]; [3],40345.17 pg/mL
same,IL-1β Median,[1]; [3],0.11 pg/mL
same,IL-2 Median,[1]; [3],0 pg/mL
same,IL-4 Median,[1]; [3],1.14 pg/mL
same,IL-5 Median,[1]; [3],0.19 pg/mL
same,IL-6 Median,[1]; [3],2.44 pg/mL
same,IL-8 Median,[1]; [3],10.41 pg/mL
same,IL-10 Median,[1]; [3],0.38 pg/mL
same,IL-12p70 Median,[1]; [3],0.33 pg/mL
same,IL-22 Median,[1]; [3],0.87 pg/mL
same,INFg Median,[1]; [3],0.08 pg/mL
same,NF-LIGHT Median,[1]; [3],18.49 pg/mL
same,Neurogranin Median,[1]; [3],881.02 pg/mL
same,TNFa Median,[1]; [3],0.83 pg/mL
same,TREM-2 Median,[1]; [3],39576.17 pg/mL
same,Total Tau Median,[1]; [3],2.03 pg/mL
same,hCRP Median,[1]; [3],4211.88 ng/mL
same,pTau-181 Median,[1]; [3],20.16 pg/ml
same,Seizures,[2],Seizures in 1 or 2 dogs
